Data taken from patent US20040171563A1, “Novel use of tyrosine kinase inhibitor” (priority 2001, published 2004).

What was measured:
Islets of Langerhans = test: cytokine-induced apoptosis in Islets of Langerhans, propidium iodide staining; format: cell-based; conditions: in vitro islet cultures with IL-1β+IFN-γ, propidium iodide staining after 24 h
Experimental: (§1) Ki using AG957 was approximately 1 μM and that of SU4984 was about 10 μM. These inhibitors were added to Islets of Langerhans in in vitro cultures together with the cytokines IL-1β+IFN-γ, and apoptosis was determined by propidium iodide staining after 24 h. It was shown that AG957 and SU 4984 prevented cytokine-induced apoptosis by 60 and 75%, respectively, which further lends support to the view that GTK-inhibition prevents beta-cell destruction in type 1 diabetes. […] It is expected that also human FRK will be inhibited.

GTK = molecular target: T1, GTK (Mus musculus, UniProt Q922K9); test: in vitro kinase assay for GTK activity; format: biochemical; conditions: for Ki: inhibition of GTK activity in in vitro kinase assays; for inhibition of GTK (qualitative): screening of commercially available tyrosine kinase inhibitors
T1 construct: made in house
T1 sequence (Q922K9 whole entry): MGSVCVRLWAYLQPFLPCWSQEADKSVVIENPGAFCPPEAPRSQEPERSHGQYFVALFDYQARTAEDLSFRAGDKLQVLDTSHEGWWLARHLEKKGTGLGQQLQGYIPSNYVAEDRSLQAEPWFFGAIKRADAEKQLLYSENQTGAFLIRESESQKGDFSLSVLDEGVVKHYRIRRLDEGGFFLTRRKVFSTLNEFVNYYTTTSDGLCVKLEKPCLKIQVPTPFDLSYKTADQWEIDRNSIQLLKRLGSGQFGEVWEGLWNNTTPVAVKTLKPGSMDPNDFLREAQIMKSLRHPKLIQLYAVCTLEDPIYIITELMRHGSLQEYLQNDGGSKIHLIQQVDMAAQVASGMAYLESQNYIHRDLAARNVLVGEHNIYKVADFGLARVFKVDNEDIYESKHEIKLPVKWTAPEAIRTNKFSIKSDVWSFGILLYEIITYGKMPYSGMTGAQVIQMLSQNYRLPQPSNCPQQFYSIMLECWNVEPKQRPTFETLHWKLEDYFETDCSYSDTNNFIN
Experimental: as §1
Assay for the assessment of GTK (FRK) kinase activity: The basis for screening for specific GTK kinase inhibitors is in vitro kinase assays, utilizing baculovirus produced GTK which is purified by immunoprecipitation using the GTK antibody. Both these reagents are available for the skilled person within this field. Phosphorylation of a synthetic peptide substrate will be studied (Annerén and Welsh, 2000) testing different concentrations of inhibitors, and IC50 values can then be determined for inhibition of GTK kinase activity. The specificity of drug-induced GTK-inhibition is then assessed by comparing the IC50 values with those of other tyrosine kinases.

Compound | prevention of cytokine-induced apoptosis (Islets of Langerhans) [%] | Ki (GTK) [µM] | inhibition of GTK (qualitative) (GTK)
COC(=O)c1ccc(NCc2cc(O)ccc2O)cc1 [AG957] | 60 | ~1 | inhibited GTK activity in in vitro kinase assays with a reasonably high degree of specificity
O=CN1CCN(c2ccc(/C=C3\C(=O)Nc4ccccc43)cc2)CC1 [SU4984] | 75 | ~10 | inhibited GTK activity in in vitro kinase assays with a reasonably high degree of specificity
N#C/C(=C\c1ccc(O)c(O)c1)C(=O)O [AG 30] | – | – | inhibit GTK with a fair degree of specificity
